Reference: patent US20230340011A1 (Asteroid Therapeutics, priority 2022, published 2023)

How the values were obtained:
SREBP-2 = SREBP-2 (Homo sapiens (Human), UniProt Q12772); test: In vitro assay SREBP-2: PathHunter U2OS SREBP-2 Nuclear Translocation Cell Line, U18666A-stimulated; assay type: cell-based; conditions: PathHunter U2OS SREBP-2 nuclear translocation cells, U18666A 10 μM, overnight (16 hours)
LXRβ = LXRβ (Homo sapiens (Human), UniProt P55055); test: In vitro assay LXRβ: PathHunter NHR CHO cells, LXRβ / Steroid Receptor Co-activator Peptide enzyme fragment complementation; assay type: cell-based; conditions: PathHunter NHR CHO cells, full-length human LXRβ and SRCP, chemiluminescent signal; read-out: LXRβ PPI
LXRβ, sequence (P55055 whole entry, the tested form may be a part): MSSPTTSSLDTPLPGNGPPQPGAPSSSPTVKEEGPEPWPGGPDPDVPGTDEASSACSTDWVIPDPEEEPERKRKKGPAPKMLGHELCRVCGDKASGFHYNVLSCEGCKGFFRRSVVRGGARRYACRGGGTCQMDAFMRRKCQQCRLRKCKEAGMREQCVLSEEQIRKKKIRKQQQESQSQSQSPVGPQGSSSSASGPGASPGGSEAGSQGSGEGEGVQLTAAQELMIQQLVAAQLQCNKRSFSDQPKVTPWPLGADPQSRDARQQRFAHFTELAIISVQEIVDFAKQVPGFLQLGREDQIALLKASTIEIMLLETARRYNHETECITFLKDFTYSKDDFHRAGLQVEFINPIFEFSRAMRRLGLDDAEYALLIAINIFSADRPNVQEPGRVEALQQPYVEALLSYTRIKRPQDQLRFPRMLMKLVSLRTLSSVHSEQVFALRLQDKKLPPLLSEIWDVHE
In short: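 Co-activator recruitment measured by chemiluminescence after signal generation. The CHO line carries full-length human LXRβ tagged with ProLink and an SRCP–enzyme acceptor fusion in the nucleus; cells sat overnight at 37° C before testing, in charcoal-dextran filtered serum medium with 1% final vehicle.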

SMILES	IC50 (SREBP-2) [nM]	EC50 (LXRβ) [nM]
C[C@H](CCC(=O)N1CCN(C(=O)OC2CC2)CC1)[C@H]1CC[C@H]2[C@@H]3CC=C4C[C@@H](O)CC[C@]4(C)[C@H]3CC[C@]12C [Example 340, cyclopropyl4-[(4R)-4-[(1R,3aS,3bS,7S,9aR,9bS,11aR)-7-hydroxy-9a,11a-dimethyl-1H,2H,3H,3aH,3bH,4H,6H,7H,8H,9H,9aH,9bH,10H,11H,11aH-cyclopenta[a]phenanthren-1-yl]pentanoyl]piperazine-1-carboxylate]	< 250	> 10000
CC(C)OC(=O)N1CCN(C(=O)CC[C@@H](C)[C@H]2CC[C@H]3[C@@H]4CC=C5C[C@@H](O)CC[C@]5(C)[C@H]4CC[C@]23C)CC1 [Example 341, isopropyl4-((R)-4-((3S,8S,9S,10R,13R,14S,17R)-3-hydroxy-10,13-dimethyl-2,3,4,7,8,9,10,11,12,13,14,15,16,17-tetradecahydro-1H-cyclopenta[a]phenanthren-17-yl)pentanoyl)piperazine-1-carboxylate]	< 250	> 10000
C[C@H](CCC(=O)N1CCN(C(=O)c2nnn(C)n2)CC1)[C@H]1CC[C@H]2[C@@H]3CC=C4C[C@@H](O)CC[C@]4(C)[C@H]3CC[C@]12C [Example 342, (R)-4-((3S,8S,9S,10R,13R,14S,17R)-3-hydroxy-10,13-dimethyl-2,3,4,7,8,9,10,11,12,13,14,15,16,17-tetradecahydro-1H-cyclopenta[a]phenanthren-17-yl)-1-(4-(2-methyl-2H-tetrazole-5-carbonyl)piperazin-1-yl)pentan-1-one]	< 250	> 10000
CCC1(O)CCN(C(=O)OC[C@@H](C)[C@H]2CC[C@H]3[C@@H]4CC=C5C[C@@H](O)CC[C@]5(C)[C@H]4CC[C@]23C)CC1 [Example 348, (S)-2-((3S,8S,9S,10R,13S,14S,17R)-3-hydroxy-10,13-dimethyl-2,3,4,7,8,9,10,11,12,13,14,15,16,17-tetradecahydro-1H-cyclopenta [a]phenanthren-17-yl)propyl 4-ethyl-4-hydroxypiperidine-1-carboxylate]	< 250	> 10000
COCCN(C)C(=O)OC[C@@H](C)[C@H]1CC[C@H]2[C@@H]3CC=C4C[C@@H](O)CC[C@]4(C)[C@H]3CC[C@]12C [Example 349, (S)-2-((3S,8S,9S,10R,13S,14S,17R)-3-hydroxy-10,13-dimethyl-2,3,4,7,8,9,10,11,12,13,14,15,16,17-tetradecahydro-1H-cyclopenta[a]phenanthren-17-yl)propyl (2-methoxyethyl)(methyl)carbamate]	< 250	> 10000
C[C@H](COC(=O)N(C)CCO)[C@H]1CC[C@H]2[C@@H]3CC=C4C[C@@H](O)CC[C@]4(C)[C@H]3CC[C@]12C [Example 350, (2S)-2-[(1R,3aS,3bS,7S,9aR,9bS,11aS)-7-hydroxy-9a,11a-dimethyl-1H,2H,3H,3aH,3bH,4H,6H,7H,8H,9H,9aH,9bH,10H,11H,11aH-cyclopenta[a]phenanthren-1-yl]propyl N-(2-hydroxyethyl)-N-methylcarbamate]	250 to 1000	> 10000
CNC(=O)OC[C@@H](C)[C@H]1CC[C@H]2[C@@H]3CC=C4C[C@@H](O)CC[C@]4(C)[C@H]3CC[C@]12C [Example 351, (S)-2-((3S,8S,9S,10R,13S,14S,17R)-3-hydroxy-10,13-dimethyl-2,3,4,7,8,9,10,11,12,13,14,15,16,17-tetradecahydro-1H-cyclopenta[a]phenanthren-17-yl)propyl methylcarbamate]	< 250	> 10000
CCN(C)C(=O)OC[C@@H](C)[C@H]1CC[C@H]2[C@@H]3CC=C4C[C@@H](O)CC[C@]4(C)[C@H]3CC[C@]12C [Example 352, (2S)-2-[(1R,3aS,3bS,7S,9aR,9bS,11aS)-7-hydroxy-9a,11a-dimethyl-1H,2H,3H,3aH,3bH,4H,6H,7H,8H,9H,9aH,9bH,10H,11H,11aH-cyclopenta[a]phenanthren-1-yl]propyl N-ethyl-N-methylcarbamate]	< 250	1000 to 10000
CCn1c(CC[C@@H](C)[C@H]2CC[C@H]3[C@@H]4CC=C5C[C@@H](O)CC[C@]5(C)[C@H]4CC[C@]23C)n[nH]c1=S [Example 353, 4-ethyl-5-((R)-3-((3S,8S,9S,10R,13R,14S,17R)-3-hydroxy-10,13-dimethyl-2,3,4,7,8,9,10,11,12,13,14,15,16,17-tetradecahydro-1H-cyclopenta[a]phenanthren-17-yl)butyl)-2,4-dihydro-3H-1,2,4-triazole-3-thione]	< 250	> 10000
C[C@H](CCC(=O)N1CCNS(=O)(=O)CC1)[C@H]1CC[C@H]2[C@@H]3CC=C4C[C@@H](O)CC[C@]4(C)[C@H]3CC[C@]12C [Example 354, 5-[(4R)-4-[(1R,3aS,3bS,7S,9aR,9bS,11aR)-7-hydroxy-9a,11a-dimethyl-1H,2H,3H,3aH,3bH,4H,6H,7H,8H,9H,9aH,9bH,10H,11H,11aH-cyclopenta[a]phenanthren-1-yl]pentanoyl]-1λ^6,2,5-thiadiazepane-1,1-dione]	< 250	> 10000
C[C@H](CCC(=O)N1CCS(=O)(=O)[C@H](C)C1)[C@H]1CC[C@H]2[C@@H]3CC=C4C[C@@H](O)CC[C@]4(C)[C@H]3CC[C@]12C [Example 356, (2R)-4-[(4R)-4-[(1R,3aS,3bS,7S,9aR,9bS,11aR)-7-hydroxy-9a,11a-dimethyl-1H,2H,3H,3aH,3bH,4H,6H,7H,8H,9H,9aH,9bH,10H,11H,11aH-cyclopenta[a]phenanthren-1-yl]pentanoyl]-2-methyl-1 λ^6-thiomorpholine-1,1-dione]	< 250	> 10000
C[C@H](CCC(=O)N1CCS(=O)(=O)C1)[C@H]1CC[C@H]2[C@@H]3CC=C4C[C@@H](O)CC[C@]4(C)[C@H]3CC[C@]12C [Example 357, (R)-1-(1,1-dioxidothiazolidin-3-yl)-4-((3S,8S,9S,10R,13R,14S,17R)-3-hydroxy-10,13-dimethyl-2,3,4,7,8,9,10,11,12,13,14,15,16,17-tetradecahydro-1H-cyclopenta[a]phenanthren-17-yl)pentan-1-one]	< 250	> 10000
C[C@H](CCC(=O)N1CCN(S(=O)(=O)N(C)C)CC1)[C@H]1CC[C@H]2[C@@H]3CC=C4C[C@@H](O)CC[C@]4(C)[C@H]3CC[C@]12C [Example 358, 4-((R)-4-((3S,8S,9S,10R,13R,14S,17R)-3-hydroxy-10,13-dimethyl-2,3,4,7,8,9,10,11,12,13,14,15,16,17-tetradecahydro-1H-cyclopenta[a]phenanthren-17-yl)pentanoyl)-N,N-dimethylpiperazine-1-sulfonamide]	< 250	> 10000
C[C@H](CCC(=O)N1CCN(S(N)(=O)=O)CC1)[C@H]1CC[C@H]2[C@@H]3CC=C4C[C@@H](O)CC[C@]4(C)[C@H]3CC[C@]12C [Example 359, 4-[(4R)-4-[(1R,3aS,3bS,7S,9aR,9bS,11aR)-7-hydroxy-9a,11a-dimethyl-1H,2H,3H,3aH,3bH,4H,6H,7H,8H,9H,9aH,9bH,10H,11H,11aH-cyclopenta[a]phenanthren-1-yl]pentanoyl]piperazine-1-sulfonamide]	< 250	> 10000
COC(=O)N1CCN(C(=O)CC[C@@H](C)[C@H]2CC[C@H]3[C@@H]4CC=C5C[C@@H](O)CC[C@]5(C)[C@H]4CC[C@]23C)CC1 [Example 360, methyl 4-((R)-4-((3S,8S,9S,10R,13R,14S,17R)-3-hydroxy-10,13-dimethyl-2,3,4,7,8,9,10,11,12,13,14,15,16,17-tetradecahydro-1H-cyclopenta[a]phenanthren-17-yl)pentanoyl)piperazine-1-carboxylate]	< 250	> 10000
C[C@H](CCC(=O)N1CCN(C)C(=O)C1)[C@H]1CC[C@H]2[C@@H]3CC=C4C[C@@H](O)CC[C@]4(C)[C@H]3CC[C@]12C [Example 361, 4-[(4R)-4-[(1R,3aS,3bS,7S,9aR,9bS,11aR)-7-hydroxy-9a,11a-dimethyl-1H,2H,3H,3aH,3bH,4H,6H,7H,8H,9H,9aH,9bH,10H,11H,11aH-cyclopenta[a]phenanthren-1-yl]pentanoyl]-1-methylpiperazin-2-one]	250 to 1000	> 10000
C[C@H](CCC(=O)N1CCNC(=O)C1)[C@H]1CC[C@H]2[C@@H]3CC=C4C[C@@H](O)CC[C@]4(C)[C@H]3CC[C@]12C [Example 362, 4-[(4R)-4-[(1R,3aS,3bS,7S,9aR,9bS,11aR)-7-hydroxy-9a,11a-dimethyl-1H,2H,3H,3aH,3bH,4H,6H,7H,8H,9H,9aH,9bH,10H,11H,11aH-cyclopenta[a]phenanthren-1-yl]pentanoyl]piperazin-2-one]	250 to 1000	> 10000
C[C@H](CCC(=O)N1CCN(C(=O)c2nnnn2C)CC1)[C@H]1CC[C@H]2[C@@H]3CC=C4C[C@@H](O)CC[C@]4(C)[C@H]3CC[C@]12C [Example 363, (R)-4-((3S,8S,9S,10R,13R,14S,17R)-3-hydroxy-10,13-dimethyl-2,3,4,7,8,9,10,11,12,13,14,15,16,17-tetradecahydro-1H-cyclopenta[a]phenanthren-17-yl)-1-(4-(1-methyl-1H-tetrazole-5-carbonyl)piperazin-1-yl)pentan-1-one]	< 250	> 10000
CNC(=O)NCC1(C)CCN(C(=O)CC[C@@H](C)[C@H]2CC[C@H]3[C@@H]4CC=C5C[C@@H](O)CC[C@]5(C)[C@H]4CC[C@]23C)CC1 [Example 364, 1-((1-((R)-4-((3S,8S,9S,10R,13R,14S,17R)-3-hydroxy-10,13-dimethyl-2,3,4,7,8,9,10,11,12,13,14,15,16,17-tetradecahydro-1H-cyclopenta[a]phenanthren-17-yl)pentanoyl)-4-methylpiperidin-4-yl)methyl)-3-methylurea]	< 250	> 10000
